Converted amounts (≈) assume the structure as drawn. Where two headings read alike, the source gives them in different places.
Key:
[1] = system: P388 mouse leukemia cells; assay: Activity against tumor cell growth (P388, MTT, 72 h); format: cell-based; conditions: read-out: IC50 (50% growth inhibition concentration)
Outline: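 P388 cells at 1.5×10^5 cells/ml in RPMI1640 with 10% FBS, 2 mM glutamine and 5 μM 2-hydroxyethyldisulfide; DMSO-dissolved compound diluted in medium, 72 h at 37 °C, 5% CO2. MTT added for 3 h, formazan dissolved in HCl-isopropanol, A540 read. IC50 from absorbance ratio versus untreated cells.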

[2] = system: P388 cells; assay: Antineoplastic activity, mice having P388 cells transplanted in abdominal cavity; format: in vivo, mouse (female, CDF1 strain); conditions: for T/C in words: cure (Survived for 60 days or longer): two mice, Cured: Survived for 60 days or longer
Method: (§1) The test compound was dissolved in dimethylsulfoxide, and the solution was adequately diluted with 10% Emulfore EL620(produced by Rhone Poulenc Co.) to prepare the test compound solution. The antineoplastic activity was evaluated as below.
To the abdominal cavity of a female mouse (CDF1 strain, 8 to 9 week age), 1×10^6 P388 cells were transplanted. Next day, the test medicine solution was injected intraperitonealy in a single dose. Five to eight mice were employed for the solvent-dosed control group, and two mice were employed for each of the dosed groups. The antineoplastic effect was evaluated by the ratio (T/C, %) of the average survival days of the dosed group (T) to the average survival days of the solvent-dosed control group(C). The T/C ratio of 130% or more is evaluated to be effective.
"Cured": Survived for 60 days or longer

[3] = system: Sarcoma-180 cells; assay: Antineoplastic activity, mice having Sarcoma-180 cells transplanted subcutaneously; format: in vivo, mouse (female, CDR strain); conditions: Mus musculus, Sarcoma-180, iv, 144 h, read-out: T/C (average tumor weight, dosed vs. solvent-dosed control); for response vs control in vivo at 0.25 mg/kg: i.v. 0.25 mg/kg single dose, tumor weighed six days after dosage
Outline: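 Female CDR mice, 5–6 weeks, implanted subcutaneously with 3.6×10^6 to 5×10^6 Sarcoma-180 cells; next day a single tail-vein dose of compound in DMSO diluted with 10% Emulfore EL620. Tumors excised and weighed six days post-dose; efficacy expressed as T/C ratio of mean tumor weights versus solvent controls.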

[4] = system: Colon-26 cells; assay: Antineoplastic activity, mice having Colon-26 cells transplanted subcutaneously; format: in vivo, mouse (female, CDF1 strain); conditions: Mus musculus, Colon 26, iv, 168 h, read-out: T/C (average tumor weight, dosed vs. solvent-dosed control); for response vs control in vivo at 0.25 mg/kg: i.v. 0.25 mg/kg single dose on sixth day, tumor weighed one week after dosage
Method: as §1
To the lateral region of a female mouse (CDF1 strain, 8 to 12 week age), 1×10^6 Colon-26 cells were transplanted subcutaneously. On the sixth day after the transplantation, the test medicine solution-was injected into the tail vein in a single dose. Seven to twelve mice were employed for the solvent-dosed control group, and five mice were employed for the dosed group. One week after the dosage, the tumor was cut out, and the weight thereof was measured. The antineoplastic effect was evaluated by the ratio (T/C) of the average tumor weight of the dosed group (T) to the average tumor weight of the solvent-dosed control group (C).

[5] = P388 mouse leukemia cells, 72 h, 37° C., MTT

COC(=O)c1c(C(F)(F)F)[nH]c2c1C13CC1CN(C(=O)c1cc4cc(OC)c(OC)c(OC)c4[nH]1)C3=CC2=O (stereo not drawn) [Example 20, methyl 6-trifluoromethyl-2-(5,6,7-trimethoxy1H-indol-2-ylcarbonyl)-1,2,8,8a-tetrahydrocyclopropa[c]-pyrrolo[3,2e]indole-4 (5H)-one-7-carboxylate]
IC50 [1, 5]: 0.00024 µg/mL (≈ 0.00044 µM)
T/C (average survival days, dosed vs. solvent-dosed control) ([2]; i.p. 0.125 mg/kg single dose, next day after transplantation, >=130% effective): 194%
response vs control in vivo at 0.25 mg/kg ([3]; *(n = 4)): 36%
response vs control in vivo at 0.25 mg/kg [4]: 15%

COC(=O)c1c(C(F)(F)F)[nH]c2c1C13CC1CN(C(=O)c1cc4cc(NC(=O)c5cc6ccccc6[nH]5)ccc4[nH]1)C3=CC2=O (stereo not drawn) [Example 23, Methyl 2-[5-[(1H-indol-2-ylcarbonyl)amino]-1H-indol-2-ylcarbonyl]-6-trifluoromethyl-1,2,8,8a-tetrahydrocyclopropa[c]pyrrolo[3,2-e]indole-4 (5H)-one-7-carboxylate]
IC50 [1, 5]: 0.00086 µg/mL (≈ 0.0014 µM)
T/C in words: cure (Survived for 60 days or longer) ([2]; i.p. 0.25 mg/kg single dose): Both cured
response vs control in vivo at 0.25 mg/kg [3]: 16%
response vs control in vivo at 0.25 mg/kg [4]: 12%

COC(=O)c1c(C(F)(F)F)[nH]c2c1C13CC1CN(C(=O)c1cc4cc(NC(=O)c5cc6ccccc6o5)ccc4[nH]1)C3=CC2=O (stereo not drawn) [Example 24, Methyl 2-[5-[(benzofuran-2-ylcarbonyl)amino]-1H-indol-2-ylcarbonyl]-6-trifluoromethyl-1,2,8,8a-tetrahydrocyclopropa[c]pyrrolo[3,2-e]indole-4 (5H)-one-7-carboxylate]
IC50 [1, 5]: 0.00053 µg/mL (≈ 0.000862 µM)
T/C in words: cure (Survived for 60 days or longer) ([2]; i.p. 0.125 mg/kg single dose): Both cured
response vs control in vivo at 0.25 mg/kg [3]: 17%
response vs control in vivo at 0.25 mg/kg [4]: 11%

COC(=O)c1c(C(F)(F)F)[nH]c2c(OC(=O)N3CCN(C)CC3)cc3c(c12)C(CBr)CN3C(=O)c1cc2cc(OC)c(OC)c(OC)c2[nH]1 (stereo not drawn) [Example 47, Methyl 1-bromomethyl-5-(4-methylpiperazin-1-ylcarbonyl)oxy-7-trifluoromethyl-3-(5,6,7-trimethoxy-1H-indol-2-ylcarbonyl)-1,2,3,6-tetrahydropyrrolo[3,2-e]indole-8-carboxylate]
IC50 ([1]; Mus musculus, P388, 72 h): 0.031 µg/mL (≈ 0.0412 µM)
T/C in words: cure (Survived for 60 days or longer) ([2]; i.p. 0.5 mg/kg single dose): Both cured
response vs control in vivo at 1 mg/kg [3]: 19%
response vs control in vivo at 1 mg/kg [4]: 7%

COC(=O)c1c(C(F)(F)F)[nH]c2c(OC(=O)N3CCN(C)CC3)cc3c(c12)C(CCl)CN3C(=O)c1cc2cc(NC(=O)c3cc4ccccc4o3)ccc2[nH]1 (stereo not drawn) [Example 48]
IC50 ([1]; Mus musculus, P388, 72 h): 0.08 µg/mL (≈ 0.103 µM)
T/C in words: cure (Survived for 60 days or longer) ([2]; i.p. 0.5 mg/kg single dose): Both cured
response vs control in vivo at 1 mg/kg [3]: 8%
response vs control in vivo at 1 mg/kg [4]: 6%

COC(=O)c1c(C(F)(F)F)[nH]c2c(OC(=O)N3CCN(C)CC3)cc3c(c12)C(CBr)CN3C(=O)c1cc2cc(NC(=O)c3cc4ccccc4o3)ccc2[nH]1 (stereo not drawn) [Example 49]
IC50 ([1]; Mus musculus, P388, 72 h): 0.089 µg/mL (≈ 0.108 µM)
T/C in words: cure (Survived for 60 days or longer) ([2]; i.p. 0.5 mg/kg single dose): Both cured
response vs control in vivo at 0.5 mg/kg [3]: 12%
response vs control in vivo at 0.5 mg/kg [4]: 9%
